This note sets out measurements from ChEMBL document CHEMBL5465560, “Selectivity Literature for EUbOPEN Chemogenomic Library” (2024).

The target of assay [1] is Putative phosphatidylinositol 4-kinase alpha-like protein P2 (Homo sapiens) (UniProt A4QPH2). Put plainly: Selectivity interaction (ActivX KiNativ screen (ex vivo kinase selectivity in human PBMCs)) EUB0001619a PI4KAP2. The assay is classed as cell-based. As to conditions: PBMC, at 1 µM.
The target in assay [2] is Tyrosine-protein kinase Fyn (Homo sapiens) (UniProt P06241). As to the kind of experiment: Selectivity interaction (ActivX KiNativ screen (kinase selectivity in THP-1 cell lysates)) EUB0000639a FYN. The assay is classed as subcellular. The following applies: lysate, at 5 µM.
Chain of Tyrosine-protein kinase Fyn (Homo sapiens) (P06241 2-537 limits assumed): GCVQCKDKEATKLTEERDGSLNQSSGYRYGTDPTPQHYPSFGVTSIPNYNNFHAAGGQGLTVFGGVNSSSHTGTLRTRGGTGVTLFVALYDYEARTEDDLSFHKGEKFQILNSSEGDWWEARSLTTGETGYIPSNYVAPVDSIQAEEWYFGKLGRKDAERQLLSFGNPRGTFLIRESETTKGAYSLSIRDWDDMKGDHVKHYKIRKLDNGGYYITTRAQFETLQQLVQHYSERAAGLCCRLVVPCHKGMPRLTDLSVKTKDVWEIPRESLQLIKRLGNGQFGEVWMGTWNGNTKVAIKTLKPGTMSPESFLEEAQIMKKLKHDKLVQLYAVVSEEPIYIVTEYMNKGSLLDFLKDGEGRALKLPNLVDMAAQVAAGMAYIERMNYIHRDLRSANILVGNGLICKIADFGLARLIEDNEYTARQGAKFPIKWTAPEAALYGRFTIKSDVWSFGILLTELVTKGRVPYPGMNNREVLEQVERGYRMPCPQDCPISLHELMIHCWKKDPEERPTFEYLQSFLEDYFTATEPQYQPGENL
The target of assay [3] is Leucine-rich repeat serine/threonine-protein kinase 2 (Homo sapiens, UniProt Q5S007). Put plainly: Selectivity interaction (Kinase panel (Invitrogen)) EUB0000639a LRRK2. As to conditions: at 200 nM.
Assay [4] concerns the target Serine/threonine-protein kinase PLK2 (Homo sapiens, UniProt Q9NYY3). As to the kind of experiment: Selectivity interaction (KinomeScan (DiscoverX)) EUB0000045b PLK2.
A short description of assay [5]: Selectivity interaction (KinomeScan (DiscoverX)) EUB0000045b CDK2H. The following applies: at 1 µM.
Assay [6] deals with Tyrosine-protein kinase ABL1 (Homo sapiens), P00519 [H396P]. As to the kind of experiment: Selectivity interaction (KinomeScan (DiscoverX)) EUB0000045b ABL1. As to conditions: at 10 µM.
In assay [7] the target is Mitogen-activated protein kinase kinase kinase kinase 4 (Homo sapiens, UniProt O95819). Put plainly: Selectivity interaction (Enzymatic assay) EUB0001199aCl MAP4K4.
Chain of Mitogen-activated protein kinase kinase kinase kinase 4 (O95819 whole entry): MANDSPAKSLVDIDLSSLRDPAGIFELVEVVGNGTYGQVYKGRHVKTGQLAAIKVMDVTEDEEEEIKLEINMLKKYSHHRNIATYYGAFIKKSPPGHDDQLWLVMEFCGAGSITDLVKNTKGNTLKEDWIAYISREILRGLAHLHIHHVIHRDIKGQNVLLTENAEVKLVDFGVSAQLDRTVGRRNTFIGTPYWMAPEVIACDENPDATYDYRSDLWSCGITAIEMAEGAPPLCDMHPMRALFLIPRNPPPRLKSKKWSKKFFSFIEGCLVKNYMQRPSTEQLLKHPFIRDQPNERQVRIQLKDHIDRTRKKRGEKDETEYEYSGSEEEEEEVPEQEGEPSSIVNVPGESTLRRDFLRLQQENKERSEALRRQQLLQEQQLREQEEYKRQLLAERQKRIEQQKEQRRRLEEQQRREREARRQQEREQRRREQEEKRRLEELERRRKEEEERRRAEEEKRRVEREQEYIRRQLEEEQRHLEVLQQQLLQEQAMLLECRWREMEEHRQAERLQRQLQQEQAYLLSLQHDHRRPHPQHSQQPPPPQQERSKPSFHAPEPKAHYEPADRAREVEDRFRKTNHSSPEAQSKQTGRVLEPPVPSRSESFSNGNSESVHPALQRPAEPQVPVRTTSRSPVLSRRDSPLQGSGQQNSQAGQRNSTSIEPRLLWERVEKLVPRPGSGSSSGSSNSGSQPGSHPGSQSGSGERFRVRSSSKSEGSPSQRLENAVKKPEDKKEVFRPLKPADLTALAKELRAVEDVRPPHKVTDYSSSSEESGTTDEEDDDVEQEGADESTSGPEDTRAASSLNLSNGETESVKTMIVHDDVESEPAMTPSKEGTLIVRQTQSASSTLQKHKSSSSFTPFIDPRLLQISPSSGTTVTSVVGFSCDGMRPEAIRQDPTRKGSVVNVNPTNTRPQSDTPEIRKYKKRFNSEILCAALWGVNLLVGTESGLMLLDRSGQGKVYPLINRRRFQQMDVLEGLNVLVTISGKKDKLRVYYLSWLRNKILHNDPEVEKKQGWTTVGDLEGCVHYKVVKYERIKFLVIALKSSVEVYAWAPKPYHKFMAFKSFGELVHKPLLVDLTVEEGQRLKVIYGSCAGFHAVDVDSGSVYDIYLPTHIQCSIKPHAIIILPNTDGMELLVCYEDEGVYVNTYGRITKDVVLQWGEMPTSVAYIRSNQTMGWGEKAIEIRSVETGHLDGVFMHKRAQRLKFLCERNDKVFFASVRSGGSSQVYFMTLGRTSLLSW
Assay [8] concerns the target Beta-2 adrenergic receptor (Homo sapiens, UniProt P07550). As to the kind of experiment: Selectivity interaction (Panel of kinases, GPCRs, ion channels and transporters (enzymatic assay)) EUB0000223bCl ADRB2.
For assay [9], the target named is T1, Dual specificity mitogen-activated protein kinase kinase 6 (Homo sapiens) (UniProt P52564).
T1 sequence (whole entry): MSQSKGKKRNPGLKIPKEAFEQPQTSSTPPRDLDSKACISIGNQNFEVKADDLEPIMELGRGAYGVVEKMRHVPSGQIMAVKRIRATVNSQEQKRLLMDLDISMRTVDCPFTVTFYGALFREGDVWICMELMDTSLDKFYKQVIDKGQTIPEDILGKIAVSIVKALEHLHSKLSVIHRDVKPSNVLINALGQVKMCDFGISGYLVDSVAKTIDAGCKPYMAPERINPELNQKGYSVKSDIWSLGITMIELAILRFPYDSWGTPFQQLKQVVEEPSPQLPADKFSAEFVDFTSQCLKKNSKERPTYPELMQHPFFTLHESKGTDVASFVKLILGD
As to the kind of experiment: Selectivity interaction (KinomeScan (DiscoverX)) EUB0000655a MAP2K6. The following applies: at 10 µM.

Assay [10] addresses T2, Serine/threonine-protein kinase tousled-like 1 (Homo sapiens) (UniProt Q9UKI8).
T2 sequence (whole entry): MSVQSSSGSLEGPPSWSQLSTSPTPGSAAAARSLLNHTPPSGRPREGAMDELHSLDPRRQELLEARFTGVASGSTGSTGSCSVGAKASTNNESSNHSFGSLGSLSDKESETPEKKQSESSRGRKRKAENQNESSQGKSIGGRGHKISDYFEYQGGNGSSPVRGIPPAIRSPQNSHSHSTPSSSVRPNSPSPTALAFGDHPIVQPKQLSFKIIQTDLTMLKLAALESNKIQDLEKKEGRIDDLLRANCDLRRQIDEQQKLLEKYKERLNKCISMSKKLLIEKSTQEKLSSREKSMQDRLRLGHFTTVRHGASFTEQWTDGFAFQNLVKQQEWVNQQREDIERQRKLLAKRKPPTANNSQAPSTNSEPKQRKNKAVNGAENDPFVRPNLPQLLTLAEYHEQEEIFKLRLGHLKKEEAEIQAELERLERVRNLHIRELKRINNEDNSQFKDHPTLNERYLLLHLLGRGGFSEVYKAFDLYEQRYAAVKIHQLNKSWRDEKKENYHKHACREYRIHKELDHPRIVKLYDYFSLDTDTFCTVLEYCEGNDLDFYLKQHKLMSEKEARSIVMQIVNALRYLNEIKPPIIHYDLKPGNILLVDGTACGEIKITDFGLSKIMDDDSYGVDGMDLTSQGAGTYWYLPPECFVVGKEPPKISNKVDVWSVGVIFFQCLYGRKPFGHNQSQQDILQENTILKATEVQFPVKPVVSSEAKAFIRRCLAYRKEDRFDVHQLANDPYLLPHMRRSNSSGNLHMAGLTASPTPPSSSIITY
As to the kind of experiment: Selectivity interaction (KinomeScan (DiscoverX)) EUB0000655a TLK1. As to conditions: at 10 µM.

Assay [11] concerns the target T3, Mitogen-activated protein kinase 13 (Homo sapiens) (UniProt O15264).
T3 sequence (whole entry): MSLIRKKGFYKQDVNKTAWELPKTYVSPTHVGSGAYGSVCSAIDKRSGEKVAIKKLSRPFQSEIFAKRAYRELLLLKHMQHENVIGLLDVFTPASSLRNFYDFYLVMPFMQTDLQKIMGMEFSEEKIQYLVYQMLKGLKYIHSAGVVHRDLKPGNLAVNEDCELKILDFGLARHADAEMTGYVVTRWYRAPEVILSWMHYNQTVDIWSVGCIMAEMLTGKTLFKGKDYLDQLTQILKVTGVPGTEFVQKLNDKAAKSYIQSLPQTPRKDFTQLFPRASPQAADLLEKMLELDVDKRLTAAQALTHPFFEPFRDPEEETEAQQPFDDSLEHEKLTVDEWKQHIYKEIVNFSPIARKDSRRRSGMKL
Put plainly: Selectivity interaction (KinomeScan (DiscoverX)) EUB0001079a MAPK13. The following applies: at 1 µM.

The target in another assay is Focal adhesion kinase 1 (Homo sapiens, UniProt Q05397). Put plainly: Selectivity interaction (KinomeScan (DiscoverX)) EUB0001079a PTK2. The following applies: at 1 µM.
Chain of Focal adhesion kinase 1 (Q05397 2-1052 limits assumed): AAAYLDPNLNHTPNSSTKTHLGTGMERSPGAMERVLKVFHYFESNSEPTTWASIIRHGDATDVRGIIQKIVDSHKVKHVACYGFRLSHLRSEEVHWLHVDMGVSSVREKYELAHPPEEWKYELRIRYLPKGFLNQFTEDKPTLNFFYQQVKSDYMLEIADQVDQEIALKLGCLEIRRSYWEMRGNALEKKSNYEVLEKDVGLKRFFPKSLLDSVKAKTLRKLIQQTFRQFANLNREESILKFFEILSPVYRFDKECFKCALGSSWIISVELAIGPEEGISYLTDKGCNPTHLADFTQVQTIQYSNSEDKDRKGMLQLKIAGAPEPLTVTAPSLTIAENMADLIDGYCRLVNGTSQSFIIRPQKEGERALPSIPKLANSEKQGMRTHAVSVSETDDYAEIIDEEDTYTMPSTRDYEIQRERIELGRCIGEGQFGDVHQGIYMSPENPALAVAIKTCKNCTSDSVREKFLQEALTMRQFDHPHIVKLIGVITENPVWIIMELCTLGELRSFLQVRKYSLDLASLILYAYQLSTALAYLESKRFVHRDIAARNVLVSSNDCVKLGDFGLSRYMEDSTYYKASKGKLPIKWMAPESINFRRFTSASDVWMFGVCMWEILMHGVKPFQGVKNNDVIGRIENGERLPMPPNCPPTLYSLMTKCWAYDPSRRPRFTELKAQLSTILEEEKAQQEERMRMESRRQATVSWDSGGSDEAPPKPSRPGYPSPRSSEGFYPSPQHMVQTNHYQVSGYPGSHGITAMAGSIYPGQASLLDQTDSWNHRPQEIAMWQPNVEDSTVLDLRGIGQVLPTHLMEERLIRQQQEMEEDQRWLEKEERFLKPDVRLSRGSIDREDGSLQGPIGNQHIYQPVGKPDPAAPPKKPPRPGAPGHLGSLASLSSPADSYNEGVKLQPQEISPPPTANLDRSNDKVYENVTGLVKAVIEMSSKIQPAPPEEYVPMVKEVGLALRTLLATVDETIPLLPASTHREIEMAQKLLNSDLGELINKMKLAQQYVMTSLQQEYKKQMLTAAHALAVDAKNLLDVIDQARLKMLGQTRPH
Assay [12] deals with Serine/threonine-protein kinase 25 (Homo sapiens) (UniProt O00506). Put plainly: Selectivity interaction (KinomeScan (DiscoverX)) EUB0000229b STK25. As to conditions: at 10 µM.
Chain of Serine/threonine-protein kinase 25 (Homo sapiens) (O00506 whole entry, looked up): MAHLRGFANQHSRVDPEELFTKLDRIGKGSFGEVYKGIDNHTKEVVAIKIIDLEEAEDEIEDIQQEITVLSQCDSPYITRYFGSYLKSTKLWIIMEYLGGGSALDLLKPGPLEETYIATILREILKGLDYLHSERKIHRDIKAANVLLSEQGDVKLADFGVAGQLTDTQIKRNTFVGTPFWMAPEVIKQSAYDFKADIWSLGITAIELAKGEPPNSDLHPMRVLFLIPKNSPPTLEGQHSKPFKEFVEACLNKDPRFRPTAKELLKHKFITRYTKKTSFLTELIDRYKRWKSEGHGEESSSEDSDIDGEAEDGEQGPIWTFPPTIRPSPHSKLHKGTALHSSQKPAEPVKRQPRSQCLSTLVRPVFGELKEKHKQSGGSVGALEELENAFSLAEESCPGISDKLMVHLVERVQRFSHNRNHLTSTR
Assay [13] concerns the target T4, Homeodomain-interacting protein kinase 4 (Homo sapiens) (UniProt Q8NE63).
T4 sequence (whole entry): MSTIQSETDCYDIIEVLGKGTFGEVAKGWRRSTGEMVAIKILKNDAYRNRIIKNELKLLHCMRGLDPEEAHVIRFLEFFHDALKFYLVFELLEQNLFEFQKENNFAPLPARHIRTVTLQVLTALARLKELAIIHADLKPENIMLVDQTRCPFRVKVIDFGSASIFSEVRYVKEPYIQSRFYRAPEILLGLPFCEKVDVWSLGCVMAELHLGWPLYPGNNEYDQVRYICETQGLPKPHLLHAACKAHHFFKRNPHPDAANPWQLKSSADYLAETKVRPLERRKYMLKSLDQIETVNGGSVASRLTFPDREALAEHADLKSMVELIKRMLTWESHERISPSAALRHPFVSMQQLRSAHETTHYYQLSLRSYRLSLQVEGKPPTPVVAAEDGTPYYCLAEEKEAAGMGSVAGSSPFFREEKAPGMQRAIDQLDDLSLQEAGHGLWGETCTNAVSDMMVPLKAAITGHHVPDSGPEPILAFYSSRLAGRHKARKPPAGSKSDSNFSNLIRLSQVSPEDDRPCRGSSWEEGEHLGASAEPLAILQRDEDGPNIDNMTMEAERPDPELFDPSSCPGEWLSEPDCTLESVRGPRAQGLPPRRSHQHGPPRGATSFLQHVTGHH
As to the kind of experiment: Selectivity interaction (KinomeScan (DiscoverX)) EUB0000229b HIPK4. The following applies: at 10 µM.

Chain of Serine/threonine-protein kinase PLK2 (Q9NYY3 whole entry, looked up): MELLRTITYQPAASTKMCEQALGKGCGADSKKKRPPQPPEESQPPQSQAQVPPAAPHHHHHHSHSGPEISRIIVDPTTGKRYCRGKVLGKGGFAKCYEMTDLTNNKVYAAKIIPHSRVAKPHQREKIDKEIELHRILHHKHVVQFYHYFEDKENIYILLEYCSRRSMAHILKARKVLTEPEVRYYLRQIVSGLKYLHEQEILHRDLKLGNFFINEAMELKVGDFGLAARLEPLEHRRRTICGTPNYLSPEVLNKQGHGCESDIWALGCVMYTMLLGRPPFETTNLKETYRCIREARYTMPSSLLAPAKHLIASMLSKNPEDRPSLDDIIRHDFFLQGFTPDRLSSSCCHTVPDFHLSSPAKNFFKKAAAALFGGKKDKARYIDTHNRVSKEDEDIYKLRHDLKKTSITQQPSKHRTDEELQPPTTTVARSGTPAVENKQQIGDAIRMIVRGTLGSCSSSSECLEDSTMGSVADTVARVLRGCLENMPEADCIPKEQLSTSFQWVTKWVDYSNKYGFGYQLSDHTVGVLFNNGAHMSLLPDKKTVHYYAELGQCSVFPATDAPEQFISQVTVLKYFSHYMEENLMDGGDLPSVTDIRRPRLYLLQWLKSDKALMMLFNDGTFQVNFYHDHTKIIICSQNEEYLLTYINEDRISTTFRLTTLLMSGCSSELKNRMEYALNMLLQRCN
Chain of Beta-2 adrenergic receptor (P07550 whole entry, looked up): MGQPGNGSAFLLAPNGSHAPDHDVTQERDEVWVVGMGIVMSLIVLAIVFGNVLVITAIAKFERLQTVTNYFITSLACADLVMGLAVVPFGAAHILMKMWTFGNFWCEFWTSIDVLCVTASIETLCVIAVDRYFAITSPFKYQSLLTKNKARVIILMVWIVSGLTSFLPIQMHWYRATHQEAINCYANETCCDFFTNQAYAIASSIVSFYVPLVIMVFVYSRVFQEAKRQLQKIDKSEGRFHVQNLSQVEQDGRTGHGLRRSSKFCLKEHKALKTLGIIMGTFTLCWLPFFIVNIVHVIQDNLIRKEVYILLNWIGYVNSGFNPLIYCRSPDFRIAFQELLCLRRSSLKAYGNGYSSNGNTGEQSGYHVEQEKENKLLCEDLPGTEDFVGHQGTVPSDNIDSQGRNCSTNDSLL
Chain of Putative phosphatidylinositol 4-kinase alpha-like protein P2 (Homo sapiens) (A4QPH2 whole entry): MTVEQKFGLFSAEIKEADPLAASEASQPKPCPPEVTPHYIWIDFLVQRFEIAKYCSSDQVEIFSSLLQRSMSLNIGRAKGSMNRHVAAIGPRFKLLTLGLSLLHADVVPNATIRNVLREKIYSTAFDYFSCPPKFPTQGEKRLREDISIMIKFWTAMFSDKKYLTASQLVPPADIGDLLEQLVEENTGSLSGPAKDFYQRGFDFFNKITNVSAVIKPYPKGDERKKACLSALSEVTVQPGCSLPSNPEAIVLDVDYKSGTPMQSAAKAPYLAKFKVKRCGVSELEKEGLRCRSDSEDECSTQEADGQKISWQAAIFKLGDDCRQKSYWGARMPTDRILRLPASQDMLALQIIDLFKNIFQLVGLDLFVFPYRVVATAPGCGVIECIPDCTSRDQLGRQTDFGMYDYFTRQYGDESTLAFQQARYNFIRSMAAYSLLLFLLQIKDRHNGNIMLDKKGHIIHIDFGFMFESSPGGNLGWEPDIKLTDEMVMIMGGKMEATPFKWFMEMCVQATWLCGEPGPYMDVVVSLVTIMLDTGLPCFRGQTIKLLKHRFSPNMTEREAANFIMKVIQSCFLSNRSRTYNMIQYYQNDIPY

Regarding `N#Cc1cccc(-c2c[nH]c3ncnc(N4CCOCC4)c23)c1`, the % of inhibition in [1] worked out at 6%.

With `CC[C@@H]1[C@H](F)C(=O)N[C@@H]1COc1nccc2cc(C(N)=O)c(OC)cc12` [ZIMLOVISERTIB], the % of inhibition was -13.3% in assay [2] and 85.1% in assay [3].

On to `C=CC(=O)Nc1cc(-n2c(=O)ccc3cnc4ccc(-c5ccc(NS(C)(=O)=O)cc5)cc4c32)ccc1C`, for which the % of control in assay [4] (at 1 µM) stood at 72%; in [4] (at 10 µM), 86%; in [5], 100%; in [6] it was 44%.

Broadly, the IC50 is the point on the concentration scale where inhibition reaches its midpoint. The low end stands for inhibition by little substance, the high end for a need for much substance. In assay [7], `CN1Cc2nccc(-c3cn(C)nc3-c3ccc(F)cc3)c2C1=O` displayed an IC50 of 873 nM.

As to `COc1cc(C(=O)N2CC[C@@H](O)[C@@H](N)C2)cc2nc(-c3cc4ccccc4n3CC3CC3)n(C)c12`, the pXC50 in assay [8] was less than 4.5 M.

For the molecule `CN(C)CCOc1ccc(-c2nc(-c3ccncc3)c(-c3ccc4c(c3)CC/C4=N\O)[nH]2)cc1`, the % of control in assay [9] was 100%; in assay [10], 99%.

For `Nc1cnc(N2CCc3cc(S(=O)(=O)Nc4c(F)cc(Cl)cc4F)cc(N4CCCC4=O)c32)nc1` [TP-020n], the % of control in [11] is 100%; at Focal adhesion kinase 1, 99%.

For `COc1cc(N(C)c2ccnc3ccc(C(F)(F)F)cc23)cc(OC)c1OC`, the % binding came to 88% in assay [12] and 100% in [13].
